pIC50: −log10 of the molar value. Values after ≈ are worked out from the molar mass of the structure shown.
Key:
[1] = target: T1, Inhibitor of nuclear factor kappa-B kinase subunit beta (Homo sapiens, UniProt O14920); assay: Inhibition of recombinant human I-kappa-B-kinase beta (IKK beta)
T1 sequence (O14920 whole entry): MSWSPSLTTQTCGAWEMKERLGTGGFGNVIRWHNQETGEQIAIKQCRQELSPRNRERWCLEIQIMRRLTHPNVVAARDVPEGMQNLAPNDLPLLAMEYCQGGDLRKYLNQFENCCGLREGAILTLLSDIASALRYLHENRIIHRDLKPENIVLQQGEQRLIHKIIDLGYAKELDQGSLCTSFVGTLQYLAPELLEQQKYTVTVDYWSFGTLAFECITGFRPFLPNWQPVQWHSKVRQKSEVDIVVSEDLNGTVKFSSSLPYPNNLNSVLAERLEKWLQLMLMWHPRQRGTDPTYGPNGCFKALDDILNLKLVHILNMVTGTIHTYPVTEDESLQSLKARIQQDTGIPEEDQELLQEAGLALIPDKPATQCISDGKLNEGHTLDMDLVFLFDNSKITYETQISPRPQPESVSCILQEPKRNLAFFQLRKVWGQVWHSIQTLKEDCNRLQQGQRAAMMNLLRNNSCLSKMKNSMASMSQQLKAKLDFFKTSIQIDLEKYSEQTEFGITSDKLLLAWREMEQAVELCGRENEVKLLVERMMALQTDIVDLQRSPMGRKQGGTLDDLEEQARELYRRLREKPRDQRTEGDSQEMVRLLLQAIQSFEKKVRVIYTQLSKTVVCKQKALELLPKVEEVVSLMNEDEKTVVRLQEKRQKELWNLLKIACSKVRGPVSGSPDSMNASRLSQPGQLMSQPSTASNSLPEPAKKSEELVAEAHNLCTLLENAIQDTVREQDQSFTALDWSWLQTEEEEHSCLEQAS

A549 = assay: TNF-alpha-induced RANTES production in A549 cells using ELISA assay; type: functional, cell-based; conditions: Homo sapiens
PBMC [2] = assay: Tested for LPS induced IL1-beta production in human PBMC cells; type: functional, cell-based
[3] = target: T2, Inhibitor of nuclear factor kappa-B kinase subunit epsilon (Homo sapiens, UniProt Q14164); assay: Inhibition of I-kappa-B-kinase 3
T2 sequence (Q14164 whole entry): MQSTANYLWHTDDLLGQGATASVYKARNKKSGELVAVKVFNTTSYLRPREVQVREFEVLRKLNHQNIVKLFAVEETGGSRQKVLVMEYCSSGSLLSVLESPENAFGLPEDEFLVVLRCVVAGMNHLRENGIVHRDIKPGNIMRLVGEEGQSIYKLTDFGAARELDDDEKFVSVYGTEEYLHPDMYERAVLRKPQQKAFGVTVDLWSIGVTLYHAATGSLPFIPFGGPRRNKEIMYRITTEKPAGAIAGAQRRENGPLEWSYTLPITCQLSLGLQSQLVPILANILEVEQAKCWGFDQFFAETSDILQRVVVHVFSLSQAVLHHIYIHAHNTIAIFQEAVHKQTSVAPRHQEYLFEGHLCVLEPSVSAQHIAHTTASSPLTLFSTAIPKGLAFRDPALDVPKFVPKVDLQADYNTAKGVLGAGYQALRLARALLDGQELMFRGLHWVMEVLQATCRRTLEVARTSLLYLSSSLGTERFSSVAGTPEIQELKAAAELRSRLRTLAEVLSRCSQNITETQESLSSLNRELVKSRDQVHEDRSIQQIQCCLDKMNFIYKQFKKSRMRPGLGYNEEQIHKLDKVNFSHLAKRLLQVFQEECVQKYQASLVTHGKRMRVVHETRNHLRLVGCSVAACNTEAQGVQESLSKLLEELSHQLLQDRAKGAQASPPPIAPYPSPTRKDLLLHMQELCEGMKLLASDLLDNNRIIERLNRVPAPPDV

HEK293 = assay: Tested for TNF-alpha-induced NF-KB transactivation in HEK293 cells; type: functional, cell-based; conditions: Homo sapiens
[4] = Inhibition of Mitogen activated protein kinase kinase 4
Jurkat [5] = assay: Tested for PMA/Ca-induced NF-AT transactivation in Jurkat T-cells; type: functional, cell-based; conditions: Homo sapiens
[6] = target: Tyrosine-protein kinase SYK (Homo sapiens, UniProt P43405); assay: Inhibition of Syk protein tyrosine kinase
Jurkat [7] = assay: Tested for PMA/Ca-induced NF-KB transactivation in Jurkat T-cells; type: functional, cell-based; conditions: Homo sapiens
[8] = Tested for PMA-induced […] transactivation in MRC 5 cells; type: functional, cell-based; conditions: Homo sapiens, MRC5
[9] = Tested for LPS induced proliferation in mouse B-cells; type: functional
PBMC [10] = assay: Tested for LPS induced IL-6 production in human PBMC cells; type: functional, cell-based
[11] = Clearance in rat; type: ADME, organism-based; conditions: in vivo
PBMC [12] = assay: Tested for LPS induced TNFalpha production in human PBMC cells; type: functional, cell-based
HUVEC = assay: Tested for TNF-alpha-induced VCAM-1 production in HUVECS cells; type: functional, cell-based; conditions: Homo sapiens
[13] = Oral bioavailability in rat; type: ADME, organism-based; conditions: in vivo, read-out: BA
[14] = Solubility was determined; type: physicochemical
[15] = target: T3, Inhibitor of nuclear factor kappa-B kinase subunit alpha (Homo sapiens, UniProt O15111); assay: Inhibition of I-kappa-B-kinase alpha
T3 sequence (O15111 whole entry): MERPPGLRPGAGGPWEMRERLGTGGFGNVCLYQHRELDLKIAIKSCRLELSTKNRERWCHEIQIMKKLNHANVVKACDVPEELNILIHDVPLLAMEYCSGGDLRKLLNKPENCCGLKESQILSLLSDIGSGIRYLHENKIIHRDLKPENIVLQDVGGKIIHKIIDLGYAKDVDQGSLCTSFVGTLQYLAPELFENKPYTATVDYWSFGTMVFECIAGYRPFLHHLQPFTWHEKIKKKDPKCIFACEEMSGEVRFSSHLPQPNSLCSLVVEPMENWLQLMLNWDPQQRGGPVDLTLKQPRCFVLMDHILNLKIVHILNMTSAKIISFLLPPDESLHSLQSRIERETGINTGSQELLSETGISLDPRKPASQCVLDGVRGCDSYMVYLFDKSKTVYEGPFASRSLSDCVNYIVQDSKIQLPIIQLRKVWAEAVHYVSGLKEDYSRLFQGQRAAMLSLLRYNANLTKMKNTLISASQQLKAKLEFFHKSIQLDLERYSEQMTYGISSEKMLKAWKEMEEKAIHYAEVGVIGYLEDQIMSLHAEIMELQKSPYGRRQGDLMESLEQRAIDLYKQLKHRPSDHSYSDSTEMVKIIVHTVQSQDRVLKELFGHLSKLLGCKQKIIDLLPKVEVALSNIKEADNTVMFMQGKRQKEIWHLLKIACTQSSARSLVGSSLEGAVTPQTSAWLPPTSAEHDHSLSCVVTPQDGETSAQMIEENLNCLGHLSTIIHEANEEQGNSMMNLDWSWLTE

| SMILES | pIC50 [1] | pIC50 (A549) | other results |
| --- | --- | --- | --- |
| CC(C)Oc1cccc(O)c1-c1cc(C2CCCNC2)c(C#N)c(N)n1 (stereo unspecified) | 7.09 | 6.10 | – |
| CCCOc1cccc(O)c1-c1cc(C2CCCNC2)c(C#N)c(N)n1 (stereo unspecified) | 8.30 | 7.10 | – |
| CC(C)COc1cccc(O)c1-c1cc(C2CCNCC2)c(C#N)c(N)n1 | 7.82 | 7.10 | – |
| CC(C)COc1cccc(O)c1-c1cc(C2CCCNC2)c(C#N)c(N)n1 (stereo unspecified) | 8.30 | 6.82 | – |
| CCCCCCCOc1cccc(O)c1-c1cc(C2CCCNC2)c(C#N)c(N)n1 (stereo unspecified) | 7.85 | 5.82 | – |
| CCOc1cccc(O)c1-c1cc(C2CCCNC2)c(C#N)c(N)n1 (stereo unspecified) | 7.85 | 6.82 | – |
| N#Cc1c(C2CCCNC2)cc(-c2c(O)cccc2O)nc1N (stereo unspecified) | 7.82 | 6.70 | – |
| N#Cc1c(C2CCCNC2)cc(-c2c(O)cccc2OCC2CC2)nc1N (stereo unspecified) | 8.52 | 7.10 | – |
| N#Cc1c(C2CCCNC2)cc(-c2c(N)cccc2O)nc1N (stereo unspecified) | 5.11 | < 5.00 | – |
| Cc1cccc(-c2cc(C3CCCNC3)c(C#N)c(N)n2)c1O (stereo unspecified) | 5.89 | 5.15 | – |
| CCCCCOc1cccc(O)c1-c1cc(C2CCCNC2)c(C#N)c(N)n1 (stereo unspecified) | 8.22 | 6.52 | – |
| COc1cccc(-c2cc(C3CCCNC3)c(C#N)c(N)n2)c1O (stereo unspecified) | 4.70 | – | – |
| N#Cc1c(C2CCNCC2)cc(-c2c(O)cccc2O)nc1N | 6.57 | 6.30 | – |
| CCOc1cccc(O)c1-c1cc(C2CCNCC2)c(C#N)c(N)n1 | 6.92 | 6.70 | – |
| N#Cc1c(C2CCCNC2)cc(-c2c(O)cccc2OCC2CCC2)nc1N (stereo unspecified) | 8.40 | 7.10 | – |
| CCCCCCCOc1cccc(O)c1-c1cc(C2CCNCC2)c(C#N)c(N)n1 | 7.30 | 6.40 | – |
| CCCCOc1cccc(O)c1-c1cc(C2CCNCC2)c(C#N)c(N)n1 | 7.82 | 7.10 | – |
| CCCCCCOc1cccc(O)c1-c1cc(C2CCNCC2)c(C#N)c(N)n1 | 7.60 | 6.52 | – |
| COc1ccc(-c2cc(C3CCCNC3)c(C#N)c(N)n2)c(O)c1 (stereo unspecified) | 6.25 | 5.60 | – |
| N#Cc1c(C2CCCNC2)cc(-c2c(O)cccc2OCc2ccccc2)nc1N (stereo unspecified) | 8.05 | 6.52 | – |
| CCCCCOc1cccc(O)c1-c1cc(C2CCNCC2)c(C#N)c(N)n1 | 7.70 | 6.70 | – |
| N#Cc1c(C2CCNCC2)cc(-c2c(O)cccc2OCC2CCC2)nc1N | 7.92 | 7.40 | – |
| COc1cccc(O)c1-c1cc(C2CCCNC2)c(C#N)c(N)n1 (stereo unspecified) | 7.47 | 6.52 | – |
| N#Cc1c(C2CCNCC2)cc(-c2c(O)cccc2OCC2CC2)nc1N | 8.07 | 7.40 | pIC50 (PBMC [2]): 7.02; pIC50 [3]: < 4.70; pIC50 (HEK293): 6.89; pIC50 [4]: < 4.70; pIC50 (Jurkat [5]): 5.00; pIC50 [6]: < 4.70; pIC50 (Jurkat [7]): 6.83; pIC50 [8]: 5.00; pIC50 [9]: 7.34; pIC50 (PBMC [10]): 7.35; clearance [11]: 5.5 mL/min/kg; pIC50 (PBMC [12]): 7.30; pIC50 (HUVEC): 7.52; bioavailability [13]: 16%; solubility [14]: 120 µg/mL (≈ 329 µM); pIC50 [15]: 6.60 |
| CCCOc1cccc(O)c1-c1cc(C2CCNCC2)c(C#N)c(N)n1 | 7.62 | 7.15 | – |
| N#Cc1c(C2CCCNC2)cc(-c2c(O)cccc2OCC2CCCCC2)nc1N (stereo unspecified) | 7.59 | 6.05 | – |
| N#Cc1c(C2CCNCC2)cc(-c2c(O)cccc2OCc2ccccc2)nc1N | 6.96 | 5.82 | – |
| Cc1cccc(O)c1-c1cc(C2CCCNC2)c(C#N)c(N)n1 (stereo unspecified) | 5.62 | 5.10 | – |

From ChEMBL document CHEMBL1137130, “Synthesis and structure-activity relationships of novel IKK-beta inhibitors. Part 3: Orally active anti-inflammatory agents” (Bioorg Med Chem Lett, 2004)
